Nine compounds from patent US11787833B2, “Modified cyclic dinucleoside compounds as sting modulators” (ALIGOS THERAPEUTICS, INC., priority 2019, dated 2023) can be followed below.

Test [1] deals with CT26 colon carcinoma. Description: CT26 mouse colon carcinoma combination study with anti-CTLA-4 (clone 9H10). The format is in vivo. The method, then: (§1) The in vivo antitumoral activity of compounds of Formula (I) were studied in the mouse CT26 colon carcinoma model. 10 female 9-week old BALB/c mice/group were implanted subcutaneously with 3×10^5 cells on the flank. Caliper measurements to assess the tumor volume (TV) and body weight measurements were performed daily for the first 8 days and biweekly thereafter until the end of the study. Dosing started when the tumor volumes reached a size of 100 mm^3. The compounds of Formula (I) were tested in two separate studies with their respective vehicle control. Compounds of Formula (I) were dosed 3 times, three days apart, intratumorally at either 25 or 100 μg. The human endpoint is predefined as a TV of 2000 mm^3.
The in vivo antitumoral activity of compounds of Formula (I) in combination with the immune checkpoint inhibitor anti-CTLA-4 (clone 9H10) was studied in the mouse CT26 colon carcinoma model. The study was performed as described in the first paragraph of Example C.

Test [2] relates to CT26 colon carcinoma. Nature of the test: CT26 mouse colon carcinoma study, intratumoral or subcutaneous administration. It is filed as in vivo. The method, then: as §1
The in vivo antitumoral activity of compounds of Formula (I) after intratumoral of subcutaneous administration was studied in the mouse CT26 colon carcinoma model. The study was performed as in the first paragraph of Example C. Compounds of Formula (I) were dosed 2 or 3 times, three days apart (q3d) or 7 days apart (qw), intratumorally at either […] or subcutaneously at either 1 or 4 mg/kg.

The subject of test [3] is CT26 colon carcinoma. Description: CT26 mouse colon carcinoma in vivo efficacy study, intratumoral dosing. As to conditions: for Cure Rate (TV < 10 mm^3) / Treatment Failure (TV > 2000 mm^3): 100 μg intratumorally, 3 times, three days apart, BALB/c mice. The method, then: as §1
Test [4] addresses T1, 293T-Dual hSTING-R232 cells (Homo sapiens, UniProt Q86WV6, H232R).
T1 construct: host or cells: 293T-Dual hSTING-R232 cells (HEK 293T)
Description: 293T R232 cell reporter assay (HEK 293T reporter assay). It is filed as cell-based. The following applies: digitonin 10 μg/mL, 30 min exposure, 20 h incubation. The method, then:
293T-Dual hSTING-R232 cells (Invivogen) were plated in 96 well plates at a density of 5×10^4 cells per well in DMEM supplemented with 10% FBS, 1% Pen-Strep, 1% non-essential amino acids, 1% glutamine, and 1% HEPES. Assay setup took place after allowing cells to adhere for 48 h. Compounds dissolved in water were serially diluted in dosing buffer containing 10 μg/mL digitonin. Media was aspirated from the cells, and 50 μL buffer with compound was added in triplicate. After 30 min at 37° C., buffer was aspirated and replaced with 100 μL media. Cells were incubated for 20 h at 37° C., 5% CO2. IFN-beta expression and activation of the interferon regulatory factor (IRF) were measured based on luciferase and alkaline phosphatase reporter activity, respectively. Cell viability was determined in parallel.
(A reporter such as luciferase makes a cellular process visible.)

Where [5] appears, read: three times subcutaneously at 4 mg/kg.
The mark [6] stands for this setting: alkaline phosphatase reporter, read-out: EC50 [μM] IRF reporter.
[7] abbreviates: luciferase reporter, read-out: EC50 [μM] IRN-β reporter.
Setting [8] is: EC50 [μM] IRF reporter, alkaline phosphatase reporter.
The mark [9] stands for this setting: EC50 [μM] IRN-β reporter, luciferase reporter.

Each structure is given as a SMILES string. Read-outs that look alike come from different tables or passages of the source.

T1 sequence (Q86WV6 whole entry H232R): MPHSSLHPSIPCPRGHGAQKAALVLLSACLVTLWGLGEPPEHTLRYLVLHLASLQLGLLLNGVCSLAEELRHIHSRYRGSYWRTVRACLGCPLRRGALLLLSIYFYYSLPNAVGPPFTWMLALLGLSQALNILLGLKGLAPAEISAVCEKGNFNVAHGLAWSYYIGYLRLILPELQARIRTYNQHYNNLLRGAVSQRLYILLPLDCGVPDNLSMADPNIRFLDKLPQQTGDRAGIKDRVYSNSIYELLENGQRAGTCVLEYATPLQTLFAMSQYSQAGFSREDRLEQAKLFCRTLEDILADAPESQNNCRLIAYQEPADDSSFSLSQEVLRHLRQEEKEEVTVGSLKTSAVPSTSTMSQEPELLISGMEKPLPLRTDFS

Take `CO[C@H]1[C@H]2OP(=O)(O)OC[C@]34C[C@@H]3[C@@H](n3cnc5c(N)ncnc53)[C@H](O)[C@@H]4O[P@@](=O)([S][Na])OC[C@H]1O[C@H]2n1cnc2c(=O)[nH]c(N)nc21` [Compound 10-b]: in the test with CT26 colon carcinoma [1] (25 μg, IT/3 × q3d), the “Complete Tumor Suppression (TV < 10 mm^3)” value worked out at 0 and the “Treatment Failure (TV > 2000 mm^3)” value was 100. In the test on CT26 colon carcinoma [1] (three IT doses of 25 g), the “delay of tumor growth” value is listed as “approx. 8 days”. In the test with CT26 colon carcinoma [2] (dosed intratumorally at 100 μg), the “animals with complete tumor suppression” value was 4/10. In the test on CT26 colon carcinoma [2] (setting [5]), the “animals with complete tumor suppression” value was 1/10 and the “delay of tumor growth” value is given as “further delay in tumor growth”. For the same compound, the “delay of tumor growth compared to the vehicle group” value in the test with CT26 colon carcinoma [2] (two subcutaneous administrations at 4 mg/kg) is listed as “approx. 8 days”.
Usually EC50 stands for the concentration that produces a half-maximal response. In the case of `CO[C@H]1[C@H]2OP(=O)([O-])OC[C@@]34C[C@@H]3[C@@H](n3cnc5c(N)ncnc53)[C@H](O)[C@@H]4OP(=O)([O-])OC[C@H]1O[C@H]2n1cnc2c(=O)[nH]c(N)nc21.[Na+].[Na+]` [Compound 1-1], in the test on CT26 colon carcinoma [3], the “Cure Rate (TV < 10 mm^3)” value was determined as 40% and the “Treatment Failure (TV > 2000 mm^3)” value came to 40%. Further, the “tumor-free animals at the end of the study” value in the test with CT26 colon carcinoma [3] (three intratumoral doses of 100 g, 10 mice/group) is 4 out of 10. In addition, the EC50 in test [4] (setting [6]) was below 0.25 µM. Also, in test [4] (setting [7]), the 50% effective concentration (EC50) was below 0.25 µM.
In the case of `Nc1nc2c(ncn2C2OC34COC2C3OP(=O)(O)OCC23CC2C(n2cnc5c(N)ncnc52)C(O)C3OP(=O)(S)OC4)c(=O)[nH]1` (centres unmarked) [Compound 1-21b], in the test on CT26 colon carcinoma [3], the “Cure Rate (TV < 10 mm^3)” value is 50% and the “Treatment Failure (TV > 2000 mm^3)” value was 50%. The EC50 in test [4] (setting [6]) was below 0.25 µM. For the same compound, the half-maximal effective concentration (EC50) in test [4] (setting [7]) is below 0.25 µM.
Turning to `Nc1ncnc2c1ncn2[C@H]1[C@H](O)[C@@H]2O[P@@](=O)([S][Na])OC[C@H]3O[C@@H](n4cnc5c(=O)[nH]cnc54)[C@H](F)[C@@H]3OP(=O)(O)OC[C@@]23C[C@H]13` [Compound 1-20b], in the test on CT26 colon carcinoma [3], the “Cure Rate (TV < 10 mm^3)” value is 50% and the “Treatment Failure (TV > 2000 mm^3)” value came to 50%. Moreover, the concentration giving a half-maximal response (EC50) in test [4] (setting [8]) is below 0.25 µM. This compound also had an EC50 in test [4] (setting [9]) below 0.25 µM.
For `Nc1nc2c(ncn2[C@@H]2O[C@@H]3CO[P@](=O)([S][Na])O[C@H]4[C@@H](O)[C@H](n5cnc6c(N)ncnc65)[C@H]5C[C@]54COP(=O)([O-])O[C@@H]2[C@@H]3F)c(=O)[nH]1.[Na+]` [Compound 1-22b], the “Cure Rate (TV < 10 mm^3)” value in the test with CT26 colon carcinoma [3] is recorded as 56%. The “Treatment Failure (TV > 2000 mm^3)” value in the test with CT26 colon carcinoma [3] was determined as 44%. For the same compound, the EC50 in test [4] (setting [6]) and in test [4] (setting [7]) was below 0.25 µM in each case.
Turning to `CO[C@H]1[C@H]2OP(=O)(O)OC[C@@]34C[C@@H]3[C@@H](n3cnc5c(N)ncnc53)[C@H](OP(=O)(O)OC[C@H]1O[C@H]2n1cnc2c(=O)[nH]c(N)nc21)[C@@H]4O` [Compound 1-3], the figures for the concentration for a half-maximal effect (EC50) in test [4] (setting [6]) and in test [4] (setting [7]) were 0.25 to 100 µM and above 100 µM, respectively.
On to `Nc1nc2c(ncn2[C@H]2[C@H](O)[C@@H]3OP(=O)(O)OC[C@H]4C[C@@H](n5cnc6c(N)ncnc65)[C@H](O)[C@@H]4OP(=O)(O)OC[C@@]34C[C@H]24)c(=O)[nH]1` [Compound 1-23], for which the concentration for a half-maximal effect (EC50) in test [4] (setting [6]) and in test [4] (setting [7]) was 0.25 to 100 µM throughout.
In the case of `CO[C@H]1[C@H]2OP(=O)(O)OC[C@]34C[C@@H]3[C@@H](n3cnc5c(N)ncnc53)[C@H](O)[C@@H]4O[P@](=O)([S][Na])OC[C@H]1O[C@H]2n1cnc2c(=O)[nH]c(N)nc21` [Compound 1-10a], the concentration giving a half-maximal response (EC50) in test [4] (setting [8]) and in test [4] (setting [9]) was 0.25 to 100 µM each time.
For the compound `Nc1nc2c(ncn2[C@@H]2O[C@@H]3CO[P@@](=O)([S][Na])O[C@H]4[C@@H](O)[C@H](n5cnc6c(N)ncnc65)[C@H]5C[C@]54COP(=O)(O)O[C@@H]2[C@@H]3F)c(=O)[nH]1` [Compound 1-22a], the concentration giving a half-maximal response (EC50) in test [4] (setting [8]) and in test [4] (setting [9]) was 0.25 to 100 µM in each case.
